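Cultured in 96-well plates, cells were exposed to test compound for 48 hours across five concentrations. GI50 is the concentration that inhibits growth by half.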 Calls of active or inactive are those of the source. Rule as the data show it: active = GI50 up to about 1.1 µM and inactive = higher.
Tests used:
Assay in all cases: DTP human tumour cell line panel, 48 h
A498 = system: A498
CAKI-1 = system: CAKI-1
EKVX = system: EKVX
HCT-116 = system: HCT-116
M14 = system: M14
MCF7 = system: MCF7
MDA-MB-435 = system: MDA-MB-435
MDA-N = system: MDA-N
MOLT-4 = system: MOLT-4
NCI-H460 = system: NCI-H460
NCI-H522 = system: NCI-H522
OVCAR-5 = system: OVCAR-5
RPMI-8226 = system: RPMI-8226
SF-539 = system: SF-539
SK-MEL-28 = system: SK-MEL-28
SK-OV-3 = system: SK-OV-3
U-251 = system: U-251
A549 = system: A549
SNB-19 = system: SNB-19
Malme-3M = system: Malme-3M

Row | SMILES | GI50 (A498) | GI50 (CAKI-1) | GI50 (EKVX) | GI50 (HCT-116) | GI50 (M14) | GI50 (MCF7) | GI50 (MDA-MB-435) | GI50 (MDA-N) | GI50 (MOLT-4) | GI50 (NCI-H460) | GI50 (NCI-H522) | GI50 (OVCAR-5) | GI50 (RPMI-8226) | GI50 (SF-539) | GI50 (SK-MEL-28) | GI50 (SK-OV-3) | GI50 (U-251) | GI50 (A549) | GI50 (SNB-19) | GI50 (Malme-3M)
1 | CSCCCCCCCCCCOc1ccc(C=C2C(=C(C#N)C#N)c3ccccc3C2=C(C#N)C#N)cc1 | 17 µM (inactive) | 17.1 µM (inactive) | 18.1 µM (inactive) | 16.9 µM (inactive) | 17.9 µM (inactive) | 14.5 µM (inactive) | 16.7 µM (inactive) | 18.3 µM (inactive) | 19.2 µM (inactive) | 17.7 µM (inactive) | 19.5 µM (inactive) | 16.6 µM (inactive) | 28.8 µM (inactive) | 18 µM (inactive) | 16.1 µM (inactive) | 17.6 µM (inactive) | 17.5 µM (inactive) | – | – | –
2 | CO[C@H]1O[C@@H]2CO[C@@H](c3ccccc3)O[C@H]2[C@@H]2C/C=C\CCC[C@@]12O | 14.8 µM (inactive) | 33.4 µM (inactive) | 19.4 µM (inactive) | 16.1 µM (inactive) | 22.4 µM (inactive) | 19.2 µM (inactive) | 24 µM (inactive) | 25.1 µM (inactive) | 17 µM (inactive) | 16.8 µM (inactive) | 20.1 µM (inactive) | 21.7 µM (inactive) | 17.2 µM (inactive) | – | 30.1 µM (inactive) | 29 µM (inactive) | 20.8 µM (inactive) | 26.9 µM (inactive) | 38.7 µM (inactive) | –
3 | CCN(CC)CCCNc1nncc2c(C)c3[nH]c4ccccc4c3cc12 | 0.665 µM (active) | 3.61 µM (inactive) | 1.37 µM (inactive) | – | 1.89 µM (inactive) | 0.331 µM (active) | 1.25 µM (inactive) | 1.06 µM (active) | 0.0241 µM (active) | 0.281 µM (active) | 0.16 µM (active) | 1.71 µM (inactive) | – | 1.12 µM (inactive) | 1.24 µM (inactive) | 0.989 µM (active) | 0.605 µM (active) | 0.67 µM (active) | 0.644 µM (active) | 1.04 µM (active)
4 | CCOC1Oc2ccccc2-c2nc(N)ncc21 (stereo unspecified) | 22.7 µM (inactive) | 30.6 µM (inactive) | 45.1 µM (inactive) | 36.5 µM (inactive) | 56.8 µM (inactive) | 37.4 µM (inactive) | 21.7 µM (inactive) | 31.6 µM (inactive) | 52.5 µM (inactive) | 24.9 µM (inactive) | 23.4 µM (inactive) | > 100 µM (inactive) | 40 µM (inactive) | 33.4 µM (inactive) | – | > 100 µM (inactive) | 65.6 µM (inactive) | 45.8 µM (inactive) | > 100 µM (inactive) | –
